In ChEMBL document CHEMBL3232733, “Design, synthesis, crystallographic studies, and preliminary biological appraisal of new substituted triazolo[4,3-b]pyridazin-8-amine derivatives as tankyrase inhibitors” (J Med Chem, 2014):
Each block holds one compound with its values, some of them ahead of it. Activity calls are given as the source filed them. The rule behind the calls is not given here.

Legend:
[1] = target: Poly [ADP-ribose] polymerase 1 (Homo sapiens, UniProt P09874); assay: Inhibition of recombinant human PARP-1
[2] = target: Poly [ADP-ribose] polymerase 2 (Homo sapiens, UniProt Q9UGN5); assay: Inhibition of recombinant human PARP-2
DLD-1 = assay: Cytotoxicity against human DLD1 cells assessed as growth inhibition at 1 to 20 uM measured on day 10 by crystal violet staining; assay type: functional, cell-based
[3] = target: T1, Protein mono-ADP-ribosyltransferase PARP3 (Homo sapiens) (UniProt Q9Y6F1); conditions: 10 uM
T1 sequence (whole entry): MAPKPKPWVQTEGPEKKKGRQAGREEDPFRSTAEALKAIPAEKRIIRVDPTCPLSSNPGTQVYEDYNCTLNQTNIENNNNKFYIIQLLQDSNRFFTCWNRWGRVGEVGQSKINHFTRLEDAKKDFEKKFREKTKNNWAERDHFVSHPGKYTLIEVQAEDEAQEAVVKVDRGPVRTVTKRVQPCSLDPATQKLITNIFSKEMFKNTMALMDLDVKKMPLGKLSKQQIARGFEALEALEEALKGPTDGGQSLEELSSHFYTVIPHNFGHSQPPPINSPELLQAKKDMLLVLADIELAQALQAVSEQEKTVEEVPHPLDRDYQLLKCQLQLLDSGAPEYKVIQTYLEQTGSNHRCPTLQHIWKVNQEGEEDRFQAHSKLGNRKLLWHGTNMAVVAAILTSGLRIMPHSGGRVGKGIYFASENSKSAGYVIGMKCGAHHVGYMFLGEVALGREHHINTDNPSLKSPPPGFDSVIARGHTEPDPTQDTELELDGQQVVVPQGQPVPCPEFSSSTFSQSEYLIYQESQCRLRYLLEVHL
Description: Inhibition of recombinant human PARP-3 at 10 uM relative to control

[4] = target: Protein mono-ADP-ribosyltransferase PARP6 (Homo sapiens) (UniProt Q2NL67); conditions: 10 uM
Description: Inhibition of recombinant human PARP-6 at 10 uM relative to control

[5] = target: T2, Protein mono-ADP-ribosyltransferase TIPARP (Homo sapiens) (UniProt Q7Z3E1); conditions: 10 uM
T2 sequence (whole entry): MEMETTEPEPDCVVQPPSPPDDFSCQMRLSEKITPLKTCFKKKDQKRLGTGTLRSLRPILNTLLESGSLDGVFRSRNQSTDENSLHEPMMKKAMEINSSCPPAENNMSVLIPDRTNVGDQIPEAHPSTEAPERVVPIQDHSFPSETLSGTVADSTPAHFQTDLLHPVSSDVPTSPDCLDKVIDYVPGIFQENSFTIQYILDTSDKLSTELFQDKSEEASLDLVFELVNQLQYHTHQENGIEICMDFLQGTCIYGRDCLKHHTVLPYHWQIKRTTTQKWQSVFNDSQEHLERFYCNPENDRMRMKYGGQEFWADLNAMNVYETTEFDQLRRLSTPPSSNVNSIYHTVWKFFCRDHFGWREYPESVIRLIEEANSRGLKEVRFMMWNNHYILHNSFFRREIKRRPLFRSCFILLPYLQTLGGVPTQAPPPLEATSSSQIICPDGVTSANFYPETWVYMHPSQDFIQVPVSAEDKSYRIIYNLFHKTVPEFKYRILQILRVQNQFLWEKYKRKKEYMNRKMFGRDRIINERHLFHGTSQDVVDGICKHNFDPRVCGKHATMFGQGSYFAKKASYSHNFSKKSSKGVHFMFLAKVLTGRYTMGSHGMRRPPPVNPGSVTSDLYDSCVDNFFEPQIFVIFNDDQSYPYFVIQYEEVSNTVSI
Description: Inhibition of recombinant human PARP-7 at 10 uM relative to control

[6] = target: T3, Protein mono-ADP-ribosyltransferase PARP8 (Homo sapiens) (UniProt Q8N3A8); conditions: 10 uM
T3 sequence (whole entry): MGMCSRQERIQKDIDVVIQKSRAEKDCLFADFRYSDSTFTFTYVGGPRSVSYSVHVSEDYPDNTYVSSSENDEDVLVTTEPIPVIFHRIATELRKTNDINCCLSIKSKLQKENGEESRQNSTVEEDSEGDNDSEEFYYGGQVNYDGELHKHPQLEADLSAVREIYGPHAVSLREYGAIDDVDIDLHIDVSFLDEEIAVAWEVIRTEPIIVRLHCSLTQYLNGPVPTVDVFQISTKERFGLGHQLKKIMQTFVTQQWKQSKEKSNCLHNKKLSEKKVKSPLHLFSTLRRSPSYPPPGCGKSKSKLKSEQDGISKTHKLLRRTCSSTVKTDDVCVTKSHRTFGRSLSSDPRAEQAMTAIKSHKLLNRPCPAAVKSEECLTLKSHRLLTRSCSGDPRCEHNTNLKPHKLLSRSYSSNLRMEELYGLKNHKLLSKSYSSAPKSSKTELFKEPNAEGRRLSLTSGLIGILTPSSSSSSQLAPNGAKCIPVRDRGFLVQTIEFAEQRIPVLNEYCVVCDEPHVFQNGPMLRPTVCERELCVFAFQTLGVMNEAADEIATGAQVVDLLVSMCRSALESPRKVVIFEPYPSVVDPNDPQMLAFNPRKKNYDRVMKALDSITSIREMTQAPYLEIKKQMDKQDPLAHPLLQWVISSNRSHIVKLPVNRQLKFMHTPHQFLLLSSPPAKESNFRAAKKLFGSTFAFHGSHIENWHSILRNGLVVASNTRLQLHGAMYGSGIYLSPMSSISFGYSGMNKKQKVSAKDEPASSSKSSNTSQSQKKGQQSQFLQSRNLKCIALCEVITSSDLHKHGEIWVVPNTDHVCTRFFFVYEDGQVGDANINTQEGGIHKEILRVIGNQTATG
Description: Inhibition of recombinant human PARP-8 at 10 uM relative to control

[7] = target: T4, Protein mono-ADP-ribosyltransferase PARP10 (Homo sapiens) (UniProt Q53GL7); conditions: 10 uM
T4 sequence (whole entry): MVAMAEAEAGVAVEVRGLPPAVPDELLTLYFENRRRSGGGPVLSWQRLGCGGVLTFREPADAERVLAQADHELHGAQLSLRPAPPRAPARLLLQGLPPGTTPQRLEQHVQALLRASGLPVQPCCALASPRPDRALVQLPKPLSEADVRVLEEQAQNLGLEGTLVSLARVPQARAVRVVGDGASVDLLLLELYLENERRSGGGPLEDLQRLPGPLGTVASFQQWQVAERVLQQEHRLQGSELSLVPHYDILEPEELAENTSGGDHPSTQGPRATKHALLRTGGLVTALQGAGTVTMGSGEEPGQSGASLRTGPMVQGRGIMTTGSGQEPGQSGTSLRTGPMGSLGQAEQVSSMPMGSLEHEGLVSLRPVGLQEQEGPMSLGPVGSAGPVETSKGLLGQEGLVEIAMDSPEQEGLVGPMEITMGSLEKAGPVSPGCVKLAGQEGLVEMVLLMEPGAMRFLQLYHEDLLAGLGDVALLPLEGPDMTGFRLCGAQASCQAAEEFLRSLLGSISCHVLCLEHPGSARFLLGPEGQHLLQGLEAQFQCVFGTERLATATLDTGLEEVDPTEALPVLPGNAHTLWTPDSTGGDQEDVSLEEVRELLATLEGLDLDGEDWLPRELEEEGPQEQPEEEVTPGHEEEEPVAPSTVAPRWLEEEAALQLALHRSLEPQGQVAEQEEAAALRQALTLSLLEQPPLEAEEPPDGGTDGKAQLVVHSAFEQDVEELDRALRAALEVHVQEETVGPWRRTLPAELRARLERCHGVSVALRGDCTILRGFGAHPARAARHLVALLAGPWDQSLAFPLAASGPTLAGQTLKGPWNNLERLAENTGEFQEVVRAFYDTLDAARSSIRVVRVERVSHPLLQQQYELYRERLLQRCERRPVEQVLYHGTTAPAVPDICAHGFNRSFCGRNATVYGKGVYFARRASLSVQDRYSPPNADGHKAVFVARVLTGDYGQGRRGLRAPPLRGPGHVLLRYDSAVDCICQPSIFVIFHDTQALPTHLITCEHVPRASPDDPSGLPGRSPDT
Description: Inhibition of recombinant human PARP-10 at 10 uM relative to control

Sequence of Poly [ADP-ribose] polymerase 2 (Q9UGN5 whole entry): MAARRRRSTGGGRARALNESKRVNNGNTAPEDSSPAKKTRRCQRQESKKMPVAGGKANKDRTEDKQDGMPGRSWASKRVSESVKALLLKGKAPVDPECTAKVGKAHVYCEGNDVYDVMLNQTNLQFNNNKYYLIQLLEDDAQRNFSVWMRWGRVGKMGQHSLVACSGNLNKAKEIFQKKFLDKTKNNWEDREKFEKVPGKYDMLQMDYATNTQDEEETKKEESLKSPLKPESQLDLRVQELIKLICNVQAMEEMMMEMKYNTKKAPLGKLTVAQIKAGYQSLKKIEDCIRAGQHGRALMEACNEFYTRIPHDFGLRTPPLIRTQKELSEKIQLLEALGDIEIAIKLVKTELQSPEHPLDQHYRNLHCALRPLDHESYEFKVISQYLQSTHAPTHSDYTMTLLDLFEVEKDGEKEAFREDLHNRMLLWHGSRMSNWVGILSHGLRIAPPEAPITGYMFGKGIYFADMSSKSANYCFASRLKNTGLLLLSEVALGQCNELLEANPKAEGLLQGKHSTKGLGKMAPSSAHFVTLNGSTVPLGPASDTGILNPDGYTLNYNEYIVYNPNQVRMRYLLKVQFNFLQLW
Sequence of Poly [ADP-ribose] polymerase 1 (P09874 whole entry): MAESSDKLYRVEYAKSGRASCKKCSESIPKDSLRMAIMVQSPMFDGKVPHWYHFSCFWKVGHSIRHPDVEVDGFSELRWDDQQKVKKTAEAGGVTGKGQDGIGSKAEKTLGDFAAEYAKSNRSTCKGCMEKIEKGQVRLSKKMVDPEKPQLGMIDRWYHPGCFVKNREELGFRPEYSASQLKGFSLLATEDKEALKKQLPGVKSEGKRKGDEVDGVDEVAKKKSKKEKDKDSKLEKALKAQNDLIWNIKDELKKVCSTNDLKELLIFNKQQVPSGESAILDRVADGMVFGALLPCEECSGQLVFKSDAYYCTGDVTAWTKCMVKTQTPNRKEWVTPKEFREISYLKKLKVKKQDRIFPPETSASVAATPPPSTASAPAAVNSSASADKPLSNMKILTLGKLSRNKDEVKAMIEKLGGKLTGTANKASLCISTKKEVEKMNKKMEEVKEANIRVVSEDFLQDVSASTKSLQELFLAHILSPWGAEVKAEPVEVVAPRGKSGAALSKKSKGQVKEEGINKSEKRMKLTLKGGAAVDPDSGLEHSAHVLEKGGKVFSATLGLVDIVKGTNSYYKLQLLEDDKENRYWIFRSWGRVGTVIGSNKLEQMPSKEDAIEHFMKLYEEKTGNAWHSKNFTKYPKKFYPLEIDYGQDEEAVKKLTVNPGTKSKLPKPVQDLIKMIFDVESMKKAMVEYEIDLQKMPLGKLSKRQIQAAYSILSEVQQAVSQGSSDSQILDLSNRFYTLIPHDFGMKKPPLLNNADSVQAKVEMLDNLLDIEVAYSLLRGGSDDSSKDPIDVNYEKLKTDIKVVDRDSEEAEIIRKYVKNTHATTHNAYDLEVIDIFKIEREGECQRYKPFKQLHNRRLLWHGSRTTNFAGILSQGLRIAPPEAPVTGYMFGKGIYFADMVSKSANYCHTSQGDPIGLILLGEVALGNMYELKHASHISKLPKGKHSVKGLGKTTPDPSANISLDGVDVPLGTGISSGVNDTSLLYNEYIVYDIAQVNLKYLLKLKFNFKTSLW
Sequence of Protein mono-ADP-ribosyltransferase PARP6 (Homo sapiens) (Q2NL67 whole entry): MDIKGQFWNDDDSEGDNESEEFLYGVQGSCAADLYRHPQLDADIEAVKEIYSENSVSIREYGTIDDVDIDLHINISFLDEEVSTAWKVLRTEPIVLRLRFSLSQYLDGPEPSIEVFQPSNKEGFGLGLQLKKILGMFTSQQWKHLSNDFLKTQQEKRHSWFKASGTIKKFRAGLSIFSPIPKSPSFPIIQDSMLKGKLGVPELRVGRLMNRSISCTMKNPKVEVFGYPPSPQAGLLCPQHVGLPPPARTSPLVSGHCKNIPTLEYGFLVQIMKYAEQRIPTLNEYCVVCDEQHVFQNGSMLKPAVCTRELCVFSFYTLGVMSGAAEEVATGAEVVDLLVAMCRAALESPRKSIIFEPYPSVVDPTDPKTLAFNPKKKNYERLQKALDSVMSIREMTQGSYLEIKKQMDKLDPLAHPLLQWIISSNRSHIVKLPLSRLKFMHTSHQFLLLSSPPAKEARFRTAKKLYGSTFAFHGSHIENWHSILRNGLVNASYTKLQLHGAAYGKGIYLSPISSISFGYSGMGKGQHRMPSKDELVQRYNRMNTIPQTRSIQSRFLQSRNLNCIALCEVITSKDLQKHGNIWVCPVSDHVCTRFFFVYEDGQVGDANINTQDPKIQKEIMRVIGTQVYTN

IC50 [1]: > 10 µM
IC50 [2]: > 10 µM
inhibition [3]: inactive
inhibition [4]: inactive
inhibition [5]: inactive
inhibition [6]: inactive
inhibition [7]: inactive
Compound: Cc1cc(NCCc2ccc(O)cc2)c2nncn2n1
growth inhibition (GI) (DLD-1): Active

Compound: O=C(Nc1cccc2cccnc12)c1ccc(N2C(=O)[C@@H]3[C@H](C2=O)[C@@H]2C=C[C@H]3C2)cc1
growth inhibition (GI) (DLD-1): Active

Compound: Oc1nc(-c2ccc(C(F)(F)F)cc2)nc2c1CSCC2
growth inhibition (GI) (DLD-1): Active

inhibition [7]: > 70%
Compound: O=C(c1cc(Cc2n[nH]c(=O)c3ccccc23)ccc1F)N1CCN(C(=O)C2CC2)CC1
